Results from US12156888B2, “CAR T-cells for the treatment of bone metastatic cancer” (H. Lee Moffitt Cancer Center and Research Institute, Inc., priority 2018, dated 2024).

Key:
γδ (CAR)-T cells = test: IL-2 secretion by γδ (CAR)-T cells; assay type: cell-based
C4-2B-PSCA cells = test: RTCA cytotoxicity assay of γδ T-cells; assay type: cell-based, human
Experimental: Summary of RTCA analysis of C4-2B-PSCA, or control PSCA null C4-2B, cells co-cultured with γδ CAR-T cells, or untransduced controls (UT). FIGS. […] show tumor cells without ZOL pretreatment. FIGS. 6C and 6D show tumor cells with 2 h ZOL pretreatment. FIGS. 6A and 6C show tumor cell viability 2 h post co-culture. FIGS. 6B and 6D show 30 h post co-culture.
The CAR- and TCR-mediated mechanism of tumor cell recognition were tested using the CRPC C4-2B cell line.

[1] = system: C4-2B luciferase expressing cells; test: Intratibial C4-2B bone metastatic CRPC model with human γδ T-cells, zoledronate or vehicle; assay type: in vivo, NSG mice; details: for Percentage of CD3Vd2 positive cells in flushed tibias, higher than control: zoledronate 0.1 mg/Kg
From the text: FIGS. 7A to 7D show C4-2B cells inoculated into NSG mice and treated with either zoledronate (ZOL) or vehicle control. After establishment and randomization mice ([…]) were inoculated with 3.5×10^6 […]. Subsets of mice were removed from the study at 1, 3 and 5 days late. […] Number illustrate the percentage of γδ T-cells in the total marrow analysis over time. […] FIG. 7C is a graph showing RLUs quantitated over time and the growth rates calculated for each group. Asterisk indicates statistical significance. Mice at the final time point were assessed for γδ T-cell localization (CD3), apoptosis (cleaved caspase-3; CC3) and proliferation (phospho histone H3; pHH3). […] Arrows indicate positivity. DAPI was used as a nuclear counterstain.
Next, the anti-tumor activity of γδ T-cells on established bone metastatic CRPC lesions in vivo was assessed. NSG (NOD.Cg-Prkdcscid112rgtm1Wjl/SzJ) immunocompromised mice were intratibially inoculated with C4-2B luciferase expressing cells (1×10^5) and once established were randomized in zoledronate (0.1 mg/Kg) or vehicle (saline) groups (n=25 per group) based on relative luminescence unit (RLU) measurement. One week later, mice received tail vein injections of human γδ T-cells (3.5×10^6/mouse).
Groups of mice (n=5) were removed from the study 1, 3, 5 days subsequent to injection with tibias being flushed and assessed for human CD3 Vd2 content by flow cytometry. […] Bioluminescence was used as a correlate of tumor growth.

T47D breast cancer cells = test: IPP production in response to zoledronate, LC-MS/MS of cell extracts; assay type: cell-based
Experimental: (§1) Following treatment of tumor cells with ZOL, IPP was measured in cell extracts by tandem LC-MS/MS, using AppCp as an internal standard. […] ZOL treatment was administered for 1 h or 18 h, at 2 different doses: 10 μM or 25 μM.
(§2) In order to verify that zoledronate effectively induces IPP accumulation in a model system, C4-2B-PSCA-Luc human CRPC prostate cancer cells were treated with 10 μM or 25 μM of zoledronate, for 1 h or 18 h. Intracellular IPP levels were measured using a semi-quantitative mass spectrometry assay. T47D breast cancer cells were used as positive control, and Panc02.03 pancreatic cancer cells were used as negative controls.

[2] = system: Panc02.03 pancreatic cancer cells; test: as above; assay type: cell-based; details: Panc02.03 cells, prolonged treatment with high doses
Experimental: as §1, §2

[3] = system: C4-2B-PSCA-Luc human CRPC prostate cancer cells; test: as above; assay type: cell-based; details: C4-2B-PSCA-Luc cells, 10 μM or 25 μM, 1 h or 18 h
Experimental: as §1, §2

[4] = system: PSCA-expressing C42B prostate cancer cells; test: IFNγ ELISA of co-culture supernatants; assay type: cell-based, human
Experimental: IFNγ ELISA of co-culture supernatants of C4-2B-PSCA cells exposed to media (negative control) or the indicated T cells, in presence of increasing concentrations of Zol (0, 0.4 and 0.8 μM).
Four variants of the anti-PSCA CAR were generated containing either CD27 (CD27z), CD28 (CD28z), or 4-1BB (BBz) costimulation. The fourth variant contains a CD27 costimulatory domain where the TRAF-binding site has been replaced with an inert flexible linker (G4S). γδ CAR-T cells expressing either CAR variant (or GFP as controls) were generated, and cocultured with PSCA-expressing C42B prostate cancer cells, in presence or absence of zoledronate, at the indicated doses. The presence of interferon-γ in the supernatants (measured by ELISA) was used as a marker of T cell activation. CAR-expressing T cells (but not untransduced or GFP-transduced cells) reacted to target cells by producing interferon-γ (solid bars).
γδ CAR-T cells recognize tumor cells via CAR and via TCR. The CAR- and TCR-mediated mechanisms of tumor cell recognition were tested using the CRPC C4-2BPSCA cell line. Cancer cells were treated with either untransduced (UT) control or CAR-expressing γδ T-cells, in the presence or absence of ZOL (0.4 μM). In presence of ZOL, control γδ T cells induced a cytotoxic effect at approx. 18 h, reflecting recognition of C4-2B-PSCA cells via TCR. […] The ability to induce a potent cytolytic effect with lesser cytokine production that can be modulated by ZOL is important since it may allow γδ (CAR−)T-cells to mediate more precise tumor killing, reducing the risk for complications related to massive cytokine release.

[5] = study endpoint, compared to control
[6] = coculture with PSCA-expressing C42B cells

In the case of `O=P(O)(O)C(O)(Cn1ccnc1)P(=O)(O)O` [zoledronate], the “Effect of zoledronate on IL-2 secretion by γδ (CAR)-T cells” value (γδ (CAR)-T cells) is reported as “increases IL-2 secretion”, the “Time at which control (untransduced) γδ T cells induced a cytotoxic effect” value (C4-2B-PSCA cells) is reported as “approx. 18 h” and the “Effect of ZOL on cytolytic activity of γδ CAR-T” value (C4-2B-PSCA cells; ZOL 0.4 μM) is reported as “greatly enhanced”. For the same molecule, the “Percentage of CD3Vd2 positive cells in flushed tibias, higher than control” value (“Percentage of CD3Vd2 positive cells” below) ([1]; Day 1 after γδ T-cell injection) was over 61%, the “Percentage of CD3Vd2 positive cells” value ([1]; Day 3 after γδ T-cell injection) was over 32% and the “Percentage of CD3Vd2 positive cells” value ([1]; Day 5 after γδ T-cell injection) was over 57%. For the same molecule, the “Apoptotic (cleaved caspase-3) cancer cells, tibia histology” value [1, 5] was “increased apoptotic”, the “Proliferative (phospo-Histone H3) cancer cells, tibia histology” value [1, 5] was “decreased proliferative” and the “C4-2B growth rate (bioluminescence)” value ([1]; zoledronate group compared to controls, all with γδ T-cells) was “significantly slower”. The “Intracellular IPP levels” value (T47D breast cancer cells; 1 h, high-dose zoledronate (doses 10 μM or 25 μM)) was “detectable over background”, the “Intracellular IPP levels” value (T47D breast cancer cells; 18 h, both doses (10 μM or 25 μM)) was “detectable over background” and the “Intracellular IPP levels” value [2] was “did not produce IPP”. For the same molecule, the “Intracellular IPP levels” value [3] was “produced high levels of IPP”, the “Effect of ZOL on IFNγ secretion” value ([4]; coculture of γδ (CAR−)T-cells with C4-2BPSCA cells, Zol 0, 0.4 and 0.8 μM) was “enhanced IFNγ secretion” and the “Effect of zoledronate on interferon production by γδ CAR-T cells” value [4, 6] was “enhanced interferon production”. The “Effect of zoledronate on target recognition by GFP-transduced and untransduced γδ T cells” value [4, 6] was “induced target recognition” and the “Effect of ZOL on IFNγ secretion” value ([4]; αβ T cells with C4-2BPSCA cells) was “not observed”.
